From ChEMBL document CHEMBL1201862, “PubChem BioAssay data set” (2004)
Activity calls are given as the source filed them.

Columns and labels:
[1] = luciferase reporter signal suppression in cells – H4 neuroglioma cells, luminescence, dose response (AID 1990); assay type: functional, cell-based
BJ [2] = assay: BJ-TERT fibroblast viability loss – cell-based, RAS-independent, luminescence, dose response (AID 1933); assay type: functional; conditions: Homo sapiens
[3] = Luminescence Cell-Based Dose Response HTS to Identify Inhibitors of 5'UTR Stem-Loop Driven Prion Protein mRNA Translation in H4 Neuroglioblastoma Cells. [Related pubchem assays: 1827 (Project Summary), 1813 (Primary HTS)]; assay type: functional
[4] = target: T1, Heat shock factor protein 1 (Mus musculus, UniProt P38532); assay: decrease of HSF1-responsive luciferase luminescence – cell-based, NIH3T3, dose retest, confirmation (AID 2382); assay type: functional;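 note: NIH3T3 fibroblasts with HSF1-driven luciferase reporter stressed by proteasome inhibitor MG132; luminescence from HSF1-driven luciferase expression after 8 hours of MG132 stress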
T1 sequence (P38532 whole entry): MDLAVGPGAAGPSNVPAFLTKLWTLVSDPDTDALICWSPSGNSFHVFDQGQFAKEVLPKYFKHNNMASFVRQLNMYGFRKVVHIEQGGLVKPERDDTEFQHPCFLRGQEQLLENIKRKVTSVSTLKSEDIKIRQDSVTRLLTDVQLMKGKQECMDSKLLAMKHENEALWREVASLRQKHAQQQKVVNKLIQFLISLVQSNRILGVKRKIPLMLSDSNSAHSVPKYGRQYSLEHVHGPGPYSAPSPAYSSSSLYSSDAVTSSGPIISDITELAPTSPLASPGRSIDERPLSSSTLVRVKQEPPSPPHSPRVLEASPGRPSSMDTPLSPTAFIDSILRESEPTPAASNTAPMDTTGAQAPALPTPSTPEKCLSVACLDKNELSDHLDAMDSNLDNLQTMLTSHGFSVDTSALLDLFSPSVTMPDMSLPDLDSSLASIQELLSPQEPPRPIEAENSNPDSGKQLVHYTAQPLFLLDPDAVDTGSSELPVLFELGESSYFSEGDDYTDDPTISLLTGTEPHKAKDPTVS

[5] = alpha-synuclein stem-loop luciferase translation blockers – H4 neuroglioma cells, luminescence, confirmation (AID 1988); assay type: functional, cell-based
BJ [6] = assay: cells; assay type: functional, cell-based; conditions: Homo sapiens
BJ [7] = assay: BJ-TERT-LT-ST fibroblast viability loss – cell-based, RAS-independent, luminescence, dose response (AID 1935); assay type: functional; conditions: Homo sapiens;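 note: BJ fibroblasts immortalized with TERT plus LT and ST oncogenes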
[8] = DRD fibroblast viability loss – cell-based, non-viral oncogenic, luminescence, dose response (AID 1934); assay type: functional; conditions: Homo sapiens
[9] = target: T2, Replicative DNA helicase DnaB (Mycobacterium tuberculosis, UniProt P9WMR3); assay: DnaB intein splicing inhibitors, dose response, biochemical, cell-free fluorescence (AID 449749); assay type: functional
T2 sequence (P9WMR3 whole entry): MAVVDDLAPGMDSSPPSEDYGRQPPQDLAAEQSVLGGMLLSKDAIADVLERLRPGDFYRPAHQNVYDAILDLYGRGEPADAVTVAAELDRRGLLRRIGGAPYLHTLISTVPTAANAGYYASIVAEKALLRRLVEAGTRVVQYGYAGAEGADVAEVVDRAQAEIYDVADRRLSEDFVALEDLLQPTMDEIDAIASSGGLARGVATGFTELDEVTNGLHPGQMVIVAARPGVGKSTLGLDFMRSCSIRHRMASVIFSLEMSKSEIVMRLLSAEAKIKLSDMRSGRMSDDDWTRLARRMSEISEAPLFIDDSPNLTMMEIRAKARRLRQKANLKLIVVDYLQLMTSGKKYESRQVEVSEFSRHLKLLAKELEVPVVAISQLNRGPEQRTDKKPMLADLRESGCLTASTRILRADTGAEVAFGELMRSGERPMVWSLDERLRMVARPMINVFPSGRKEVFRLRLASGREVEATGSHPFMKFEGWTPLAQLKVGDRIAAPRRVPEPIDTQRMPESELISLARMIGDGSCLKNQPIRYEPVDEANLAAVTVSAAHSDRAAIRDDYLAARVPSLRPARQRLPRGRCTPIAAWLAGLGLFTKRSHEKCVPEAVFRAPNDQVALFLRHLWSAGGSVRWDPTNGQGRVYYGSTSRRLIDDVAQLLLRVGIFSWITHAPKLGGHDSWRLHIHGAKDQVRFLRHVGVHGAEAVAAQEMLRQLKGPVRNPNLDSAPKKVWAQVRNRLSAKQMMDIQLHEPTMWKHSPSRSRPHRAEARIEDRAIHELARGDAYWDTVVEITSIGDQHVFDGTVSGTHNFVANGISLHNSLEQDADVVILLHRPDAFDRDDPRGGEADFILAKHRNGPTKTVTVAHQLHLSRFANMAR

BJ [10] = assay: growth inhibition of engineered Ras-driven BJ cells – cell-based, alamar blue fluorescence, cherrypicked samples, dose response (AID 2631); assay type: functional; conditions: Homo sapiens;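 note: confirmatory dose-response assay in RAS-dependent BJ fibroblasts engineered with TERT, LT and ST, with cytotoxicity read by fluorescence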
Protein RecA = target: T3, Protein RecA (Mycobacterium tuberculosis, UniProt P9WHJ3); assay: Fluorescence Cell-Free Homogeneous Dose Retest to Identify Inhibitors of RecA-Intein Splicing Activity. [Related pubchem assays (depositor defined):AID2097, AID2223, AID489010, AID492950]; assay type: functional
T3 sequence (P9WHJ3 whole entry): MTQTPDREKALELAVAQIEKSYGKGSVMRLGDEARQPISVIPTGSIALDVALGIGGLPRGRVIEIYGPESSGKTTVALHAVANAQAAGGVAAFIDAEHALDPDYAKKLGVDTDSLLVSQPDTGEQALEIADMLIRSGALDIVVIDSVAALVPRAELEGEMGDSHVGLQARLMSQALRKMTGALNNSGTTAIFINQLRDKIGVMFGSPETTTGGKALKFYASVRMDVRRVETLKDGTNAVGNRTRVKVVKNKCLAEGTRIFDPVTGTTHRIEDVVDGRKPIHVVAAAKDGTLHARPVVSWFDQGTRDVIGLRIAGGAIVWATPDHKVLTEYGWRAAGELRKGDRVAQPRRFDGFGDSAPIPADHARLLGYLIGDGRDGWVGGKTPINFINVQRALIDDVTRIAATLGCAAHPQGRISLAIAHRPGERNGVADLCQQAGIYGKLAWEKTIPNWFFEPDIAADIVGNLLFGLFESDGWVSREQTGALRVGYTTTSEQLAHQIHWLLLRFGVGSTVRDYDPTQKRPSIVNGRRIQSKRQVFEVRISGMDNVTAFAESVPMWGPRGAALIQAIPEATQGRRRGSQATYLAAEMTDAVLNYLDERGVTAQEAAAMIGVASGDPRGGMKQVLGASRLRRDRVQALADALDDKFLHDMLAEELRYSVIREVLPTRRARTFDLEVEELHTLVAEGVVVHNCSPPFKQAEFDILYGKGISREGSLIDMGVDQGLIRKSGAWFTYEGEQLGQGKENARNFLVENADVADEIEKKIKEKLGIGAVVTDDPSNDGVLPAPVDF

Nonstructural protein 1 = Nonstructural protein 1 (Influenza A virus, UniProt Q194T2); assay type: functional, Influenza A virus (A/California/07/2009(H1N1))
Vero = assay: Vero E6 cell cytotoxicity, dose response, cytotoxicity control (AID 540298); assay type: functional; conditions: Chlorocebus sabaeus
MDCK [11] = assay: MDCK cell cytotoxicity, dose response, cytotoxicity control (AID 540296); assay type: functional; conditions: Canis lupus familiaris
MDCK [12] = assay: antiviral activity against H1N1 influenza, dose response, cell-based, strain KY136 (AID 540257); assay type: functional; conditions: Canis lupus familiaris
[13] = target: T4, Beta-adrenergic receptor kinase 1 (Homo sapiens, UniProt P25098); assay: aptamer displacement from bead-bound GRK2 – biochemical, cherry pick 1, bead flow cytometry, dose response (AID 504500)
[14] = target: T4, Beta-adrenergic receptor kinase 1; assay: blockers of aptamer binding to GRK2 – biochemical, flow cytometry beads, FAM-aptamer, powder set 1, dose response (AID 588720)
[15] = target: T5, Small ubiquitin-related modifier 1 (Homo sapiens, UniProt P63165); assay: SUMO1 protein interaction blockers, potency – biochemical, fluorescence polarization, uHTS hits, dose response (AID 624382); assay type: functional; conditions: read-out: IC50_Mean
[16] = target: T5, Small ubiquitin-related modifier 1; assay: SUMO1 protein-protein binding blockers, potency – biochemical, FRET, dose response (AID 624383); assay type: functional; conditions: read-out: IC50_Mean
HEK293 [17] = assay: HEK293T cell viability loss, resazurin readout – resazurin fluorescence, cytotoxicity control for NF-kB activator project, SAR follow-up (AID 493251); assay type: functional, cell-based; conditions: Homo sapiens
Jurkat = assay: SAR Analysis of small molecule inhibitors of T-cell specific antigen receptor-induced NF-kB activation in a Jurkat cell line using a luminescence assay - Set 2. [Related pubchem assays (depositor defined):AID435003, AID435012, AID465]; assay type: functional, cell-based; conditions: Homo sapiens
HEK293 [18] = assay: SAR Analysis of small molecule inhibitors of T-cell specific antigen receptor-induced NF-kB activation in a HEK-293T cell line using a luminescence assay - Set 2. [Related pubchem assays (depositor defined):AID435003, AID435012, AID489026]; assay type: functional, cell-based; conditions: Homo sapiens

T4 sequence (P25098 whole entry): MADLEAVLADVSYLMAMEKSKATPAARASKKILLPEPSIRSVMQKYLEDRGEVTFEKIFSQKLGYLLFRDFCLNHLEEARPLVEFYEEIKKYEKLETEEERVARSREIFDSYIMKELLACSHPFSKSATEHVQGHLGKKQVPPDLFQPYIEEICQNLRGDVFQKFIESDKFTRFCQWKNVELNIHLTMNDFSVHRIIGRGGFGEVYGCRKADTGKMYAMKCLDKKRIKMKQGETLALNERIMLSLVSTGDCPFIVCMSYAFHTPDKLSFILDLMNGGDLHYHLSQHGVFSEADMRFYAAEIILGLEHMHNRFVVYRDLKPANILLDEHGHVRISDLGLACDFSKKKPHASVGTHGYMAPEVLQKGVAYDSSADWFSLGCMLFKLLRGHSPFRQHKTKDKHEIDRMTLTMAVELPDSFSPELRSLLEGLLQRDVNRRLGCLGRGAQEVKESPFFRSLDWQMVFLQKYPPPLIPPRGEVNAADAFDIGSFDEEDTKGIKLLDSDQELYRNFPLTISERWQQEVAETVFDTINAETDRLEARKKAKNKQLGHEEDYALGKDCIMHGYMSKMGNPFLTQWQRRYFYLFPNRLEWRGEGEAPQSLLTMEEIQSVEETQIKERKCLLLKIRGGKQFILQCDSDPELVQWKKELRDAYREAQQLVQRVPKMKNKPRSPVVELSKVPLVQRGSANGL
T5 sequence (P63165 whole entry): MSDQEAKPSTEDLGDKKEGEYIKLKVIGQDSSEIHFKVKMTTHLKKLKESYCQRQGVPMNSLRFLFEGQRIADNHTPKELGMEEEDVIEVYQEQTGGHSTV
Nonstructural protein 1, sequence (Q194T2 whole entry): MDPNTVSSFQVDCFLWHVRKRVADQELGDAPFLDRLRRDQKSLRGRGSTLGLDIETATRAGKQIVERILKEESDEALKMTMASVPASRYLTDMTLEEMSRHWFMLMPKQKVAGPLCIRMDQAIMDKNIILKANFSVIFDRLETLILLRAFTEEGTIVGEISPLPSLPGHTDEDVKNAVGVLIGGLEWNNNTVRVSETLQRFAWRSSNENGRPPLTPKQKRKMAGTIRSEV

COc1cc(C2CC(c3cccs3)=NN2C(=O)CCl)ccc1OC(F)F (centres undefined)
inconclusive: EC50 (BJ [7]) 4.47 µM
active: EC50 (BJ [2]) 0.625 µM | EC50 [3] 11 µM | EC50 [4] 3.04 µM | EC50 [5] 8.46 µM | EC50 (BJ [6]) 2.56 µM | EC50 [8] 1.95 µM | AC50 [9] 1.51 µM | EC50 (BJ [10]) 0.608 µM | EC50 (Protein RecA) 1.13 µM
> 120 µM (not active): EC50 [1]

COc1cccc(/C=C2\SC(=S)N(CCCC(=O)N3CCCC3)C2=O)c1
inactive: EC50 (Protein RecA) > 380 µM
active: IC50 (Nonstructural protein 1) 66.8 µM | AC50 [9] 71.1 µM | CC50 (Vero) 12.8 µM | CC50 (MDCK [11]) > 40 µM | IC50 (MDCK [12]) 32.9 µM

CC(CS(=O)(=O)c1ccc2c(c1)NC(=O)CS2)C(=O)NCc1ccccc1Cl (centres undefined)
inactive: IC50 [15] > 66.6 µM
active: EC50 [13] 7.53 µM | EC50 [14] 0.638 µM | IC50 [16] 4.08 µM

COc1ccccc1C(NC(C)=O)c1ccc2cccnc2c1O (centres undefined)
active: IC50 (HEK293 [17]) 7.73 µM | IC50 (Jurkat) 7.09 µM | IC50 (HEK293 [18]) 7.96 µM
